According to the METLIN SMRT retention time set (Domingo-Almenara et al. 2019):

Test: gradient 5% acetonitrile 3 min, to 50% in 2 min, to 85% in 15 min, held 3 min, 100 µL/min
Settings: column: Zorbax Extend-C18 2.1 x 50 mm; eluents: water / acetonitrile, 0.1% formic acid
Procedure, shortened: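 Retention times of pure standards were taken from adduct peaks that were selected by computer and manually inspected. Over 3 months, mixtures of ~100 molecules were run by HPLC–quadrupole time-of-flight mass spectrometry in positive and negative ionization mode. The Zorbax Extend-C18 column (2.1 × 50 mm, 1.8 μm) ran at 100 μL/min in water and acetonitrile, each containing 0.1% formic acid, with 40 μL dead volume and 900 μL dwell volume.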

SMILES: CCN(CC)C(=O)c1cc2c(s1)CCC(C(=O)N1CCN(c3ccccn3)CC1)C2 (stereo not drawn)
- RP-LC retention time: 629 s

SMILES: O=C(C1CCN(S(=O)(=O)c2cc(-c3noc(C4CC4)n3)cs2)CC1)N1CCc2ccccc21
- RP-LC retention time: 1070 s

SMILES: COCCc1noc([C@@H]2CN(Cc3cccc4[nH]ccc34)C[C@H]2CO)n1
- RP-LC retention time: 554 s

SMILES: CCCC(=O)Nc1ccc2c(c1)CN(C(=O)c1ccc(F)c(Cl)c1)C(C(=O)N(C)C)C2 (stereo not drawn)
- RP-LC retention time: 727 s

SMILES: Cc1ccc(-c2nc(Nc3ccc(Cl)cc3Cl)sc2CC(=O)O)cc1
- RP-LC retention time: 1180 s

SMILES: O=c1ccc(-c2ccc3c(c2)OCO3)nn1CCc1nc(-c2ccccc2Cl)no1
- RP-LC retention time: 966 s

SMILES: CCN1C(=O)c2cccnc2Sc2cc(NC(=O)c3ccsc3)ccc21
- RP-LC retention time: 796 s

SMILES: Cc1cc(C(=O)NCC2CCN(C(=O)Oc3ccccc3)CC2)c(C)o1
- RP-LC retention time: 829 s

SMILES: Cc1ccc2c(c1)c(C)c(C)n2CC(O)Cn1nc(C)cc1C (stereo not drawn)
- RP-LC retention time: 933 s

SMILES: Cc1cc(N2CCN(C)CC2)nc2ccc(NC(=O)Nc3ccc4c(c3)OCCO4)cc12
- RP-LC retention time: 580 s

SMILES: Cc1ccc(-c2cn3c(CC(=O)NCc4ccc(Cl)cc4)csc3n2)cc1C
- RP-LC retention time: 892 s

SMILES: O=C(Nc1nccs1)C(=O)c1c(-c2ccccc2)cc2ccccn12
- RP-LC retention time: 866 s

SMILES: COC(=O)CSCC(=O)Nc1cc(C)ccc1C
- RP-LC retention time: 729 s

SMILES: CCN1CCn2cc(S(=O)(=O)NCc3cccc(C(F)(F)F)c3)cc2C1=O
- RP-LC retention time: 781 s

SMILES: CC(C)(C)c1csc(-c2csc(S(=O)(=O)Nc3ccc(Br)cc3F)c2)n1
- RP-LC retention time: 1330 s

SMILES: CCN1CCN(CCNC(=O)c2cc3n(n2)CCCN(Cc2cccc(C)c2)C3=O)CC1
- RP-LC retention time: 602 s

SMILES: COCCNC(=O)c1ccc2c(c1)CCCN2C(=O)c1ccc(Cl)cc1
- RP-LC retention time: 752 s

SMILES: COc1ccc(C)cc1NC(=O)N1CCCC1c1c(C)noc1C (stereo not drawn)
- RP-LC retention time: 840 s

SMILES: CC(C)CNC(=O)c1cn(-c2cc(-c3nc(C(C)C)no3)ccn2)cn1
- RP-LC retention time: 920 s

SMILES: Cc1ccc(Nc2c(-c3ccc(N(C)C)cc3)nc3ncccn23)c(C)c1
- RP-LC retention time: 782 s

SMILES: COCCCNC(=O)C1c2ccccc2C(=O)N1Cc1cccc(Br)c1 (stereo not drawn)
- RP-LC retention time: 750 s

SMILES: c1ccc(-c2nc(-c3cccc(-c4ccn[nH]4)c3)no2)cc1
- RP-LC retention time: 966 s

SMILES: O=C(Nc1cnc(-c2cccnc2)nc1)C1CCC1
- RP-LC retention time: 659 s

SMILES: COc1nn(C)cc1C(=O)NCCn1nc(-c2cccs2)ccc1=O
- RP-LC retention time: 605 s

SMILES: CC1CCCN(c2ccc(-c3noc(CN4CCN(CC(=O)NC(C)C)CC4)n3)cn2)C1 (stereo not drawn)
- RP-LC retention time: 635 s

SMILES: Cc1cc(C)cc(N2CCC(NC(=O)Nc3ccc(F)cc3F)C2=O)c1 (stereo not drawn)
- RP-LC retention time: 904 s

SMILES: Cc1ccccc1C(C(=O)NC1CCCCC1)N(C(=O)Cn1ccnc1C)c1cccc(F)c1 (stereo not drawn)
- RP-LC retention time: 895 s

SMILES: NC(=O)c1ccsc1NC(=O)c1ccc(S(=O)(=O)N2CCc3ccccc3C2)cc1
- RP-LC retention time: 877 s

SMILES: O=C(Nc1cccc(F)c1)N1CC(Oc2ccc(-c3nc(-c4ccccc4)no3)cc2)C1
- RP-LC retention time: 1200 s

SMILES: Cc1cccc(-c2nc(Cc3noc(CNC(=O)c4ccccc4)n3)c(C)o2)c1
- RP-LC retention time: 924 s

SMILES: Cc1ccc(-c2ccc(=O)n(Cc3nc(-c4cccs4)no3)n2)cc1
- RP-LC retention time: 990 s

SMILES: CCn1ccc(C(=O)N(CC2CCCO2)c2nc3c(C(C)C)cccc3s2)n1 (stereo not drawn)
- RP-LC retention time: 1370 s

SMILES: O=C(Nc1ccc(SCc2nnc(-c3ccccc3)o2)cc1)c1cccs1
- RP-LC retention time: 968 s

SMILES: O=C(CCn1nnc2cc(-c3noc(-c4ccc(C(F)(F)F)cc4)n3)ccc21)N1CCOCC1
- RP-LC retention time: 974 s

SMILES: O=C(NCCCN1CCOCC1)c1csc(-c2ccc(N3CCCC3)nc2)n1
- RP-LC retention time: 553 s

SMILES: CCOC(=O)c1noc2ncnc(Nc3ccc(C)c(C)c3)c12
- RP-LC retention time: 1070 s

SMILES: CN1c2cc(F)ccc2C(=O)NC12CCN(C(=O)Nc1ccc3c(c1)OCCO3)CC2
- RP-LC retention time: 725 s

SMILES: O=C(c1cc(Cl)ccc1Cl)N1CCN(c2cc(-c3ccccc3)[nH]n2)CC1
- RP-LC retention time: 882 s

SMILES: CCOC(=O)COc1cc(-c2ccc(C)cc2)nc2ccc(NC(=O)COc3ccccc3)cc12
- RP-LC retention time: 902 s

SMILES: O=C(NC1CCN(Cc2ccccc2)CC1)c1cn2cc(Cl)ccc2n1
- RP-LC retention time: 610 s

SMILES: O=C(NCc1ccc(F)cc1)C1CCN(c2cc(N3CCSCC3)ncn2)CC1
- RP-LC retention time: 666 s

SMILES: Fc1ccc(OCc2nnc3sc(COc4ccccc4)nn23)cc1
- RP-LC retention time: 938 s

SMILES: Cc1nc(-c2ccc3c(c2)CCN3C(=O)COc2ccc(F)cc2)cs1
- RP-LC retention time: 960 s

SMILES: O=C(NCc1ccco1)C1CCN(c2cnc3nccnc3c2)CC1
- RP-LC retention time: 629 s

SMILES: COc1cccc(-c2nc3sc(C(N)=O)c(C)n3c2NC(C)(C)C)c1
- RP-LC retention time: 743 s

SMILES: CN(CC#N)C(=O)Cn1c(=O)c2cccn2c2ccccc21
- RP-LC retention time: 705 s

SMILES: O=C(Nc1cccc(Cl)c1)Nc1cnn(-c2ncncc2N2CCOCC2)c1
- RP-LC retention time: 735 s

SMILES: CCOc1ccc(-n2ccn3c(CCCC(=O)NC4CCCCCC4)nnc3c2=O)cc1
- RP-LC retention time: 783 s

SMILES: Cc1ccc(-c2noc(CSc3nc4cc5c(cc4c(=O)n3-c3ccc(F)cc3)OCO5)n2)cc1
- RP-LC retention time: 1200 s

SMILES: COc1ccc(OC)c(CNC(=O)NC2COc3ccc(OC)cc3C2)c1 (stereo not drawn)
- RP-LC retention time: 810 s

SMILES: CC(Oc1ccccc1)C(=O)NCc1nnnn1-c1ccc(Cl)cc1 (stereo not drawn)
- RP-LC retention time: 824 s

SMILES: CCCCS(=O)(=O)N1CCc2c(c(-c3nnc(-c4ccc(F)cc4)o3)nn2C)C1
- RP-LC retention time: 893 s

SMILES: CCn1cnc2cc(-c3noc(C4CC(=O)N(c5ccc(C)c(C)c5)C4)n3)ccc21 (stereo not drawn)
- RP-LC retention time: 734 s

SMILES: Cc1nn(C)c(C)c1CCN(C)c1nc(C2CC2)nc2c1CCC2
- RP-LC retention time: 604 s

SMILES: Cc1nc2c(sc3nc(-c4ccccc4)ccc32)c(=O)n1CC(=O)NCc1ccc2c(c1)OCO2
- RP-LC retention time: 985 s

SMILES: CC(C)CNC(=O)COc1cccc2ccccc12
- RP-LC retention time: 896 s

SMILES: CC(C)n1c(N2CCN(C(=O)COc3ccc(F)cc3)CC2)cc(=O)n(C(C)C)c1=O
- RP-LC retention time: 904 s

SMILES: O=C(Cn1cnc2nc(N3CCCC(C(=O)NC4CC4)C3)sc2c1=O)NCc1ccc(F)cc1 (stereo not drawn)
- RP-LC retention time: 669 s

SMILES: Cc1ccccc1Oc1nccn2c(=O)n(CC(=O)NCc3ccccc3)nc12
- RP-LC retention time: 797 s

SMILES: COc1ccc(-c2ncc3c(n2)CCN(S(=O)(=O)c2ccc(Cl)cc2)C3)cc1
- RP-LC retention time: 1100 s

SMILES: Cc1ccc(NC(=O)N2CCC(n3cnnc3C3CC3)C2)cc1C (stereo not drawn)
- RP-LC retention time: 665 s

SMILES: CC1(C(=O)NCc2ccc(F)cc2)CCN(S(=O)(=O)c2ccc(Br)s2)CC1
- RP-LC retention time: 1010 s

SMILES: CCCCn1cc(S(=O)(=O)Nc2ccccc2C)c2cccnc21
- RP-LC retention time: 985 s

SMILES: Cc1ccc(C)c(NC(=O)Cn2cnc3nc(N4CCCC(C(=O)NC(C)C)C4)sc3c2=O)c1 (stereo not drawn)
- RP-LC retention time: 731 s

SMILES: CCc1ccc(NS(=O)(=O)c2cc3n(c2)CCCN(CC)C3=O)cc1
- RP-LC retention time: 801 s

SMILES: CCn1cc(-c2nc(C)c(C(=O)NCc3cccnc3)s2)c2cccnc21
- RP-LC retention time: 629 s

SMILES: CCN(CC)CCOc1ccc(C(=C(Cl)c2ccccc2)c2ccccc2)cc1
- RP-LC retention time: 1010 s

SMILES: N#Cc1cccc(-c2nc(-c3cccc(-c4ccn[nH]4)c3)no2)c1
- RP-LC retention time: 920 s

SMILES: Cc1nn(-c2nc(-c3ccc(F)cc3)cs2)c(C)c1CC(=O)N1CCc2ccccc2C1
- RP-LC retention time: 1220 s

SMILES: O=C(Cn1cccc(-c2nc(-c3ccc(F)cc3)no2)c1=O)NCc1cccs1
- RP-LC retention time: 673 s

SMILES: Cc1nc(Nc2ccc(F)cn2)sc1C(=O)NCCC1=CCCCC1
- RP-LC retention time: 963 s

SMILES: Cc1noc(C)c1CCNC(=O)Cn1c2ccccc2c2cnn(C)c(=O)c21
- RP-LC retention time: 706 s

SMILES: CC(C)c1nc2ccc(C(=O)NCCc3c[nH]c4ccc(Cl)cc34)cc2o1
- RP-LC retention time: 941 s

SMILES: C=CCN1C(=O)COc2ccc(-c3nc(NC(=O)C(F)(F)F)sc3C)cc21
- RP-LC retention time: 932 s

SMILES: COCc1cc(=O)n(CC(=O)Nc2ccc(Cl)cc2)c(N)n1
- RP-LC retention time: 641 s

SMILES: O=C(C1CCN(c2cnc(N3CCCC3)nc2)CC1)N1CCCCC1
- RP-LC retention time: 616 s

SMILES: Cc1ccccc1-c1noc(C2CCCN2S(=O)(=O)c2ccc(C(C)C)cc2)n1 (stereo not drawn)
- RP-LC retention time: 1340 s

SMILES: COC(=O)c1ccc(NC(=O)Cn2cnc3c(sc4nc(-c5ccccc5)ccc43)c2=O)cc1
- RP-LC retention time: 985 s

SMILES: COc1ccc(NC(=O)C2CCCN(c3cnc4nccnc4c3)C2)cc1 (stereo not drawn)
- RP-LC retention time: 698 s

SMILES: Cc1cc2[nH]c(C(=O)Nc3cc(F)ccc3C)c(CN3CCOCC3)c2s1
- RP-LC retention time: 678 s

SMILES: O=C(Cn1nc(N2CCCCCC2)c2ccccc2c1=O)NC1CCc2ccccc21 (stereo not drawn)
- RP-LC retention time: 1120 s

SMILES: COc1ccc(CN2C(=O)CC(c3ccc(OC)cc3)CC2=O)cc1
- RP-LC retention time: 965 s

SMILES: CNC(=O)C1CCCN(c2nc3ncn(CC(=O)N4CCc5ccccc5C4)c(=O)c3s2)C1 (stereo not drawn)
- RP-LC retention time: 666 s

SMILES: COc1ccccc1C(=O)Nc1nnc(SCc2ccc(Br)cc2)s1
- RP-LC retention time: 1140 s

SMILES: CCCCn1cc(S(=O)(=O)N2CCN(c3ccccc3)CC2)c2cccnc21
- RP-LC retention time: 1120 s

SMILES: O=C(Nc1cc(Cl)cc(Cl)c1)N1CC(Cc2nc(-c3cnccn3)no2)C1
- RP-LC retention time: 838 s

SMILES: COc1ccc2c(c1)-c1nc(NC(=O)c3ccccc3Br)sc1CC2
- RP-LC retention time: 1140 s

SMILES: Cc1cc(Cl)ccc1OCC(=O)Nc1ccc2c(c1)Sc1ncccc1C(=O)N2C
- RP-LC retention time: 911 s
